Experimental data from ChEMBL document CHEMBL1201862, “PubChem BioAssay data set” (2004).
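Interpolation was linear, between the two tested concentrations surrounding the appropriate level; five concentrations were tested over 48 hours in 96-well plates. The concentration for 50% growth inhibition is given as GI50.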 The source made the active and inactive calls. Cut-off read from the data, not from the text of the source: active = GI50 up to about 1.1 µM and inactive = higher.

What was measured:
Test in all cases: NCI tumour cell line growth inhibition, 48 h
K562 = test system: K562
HT-29 = test system: HT-29
M19-MEL = test system: M19-MEL
LOX IMVI = test system: LOX IMVI
HCT-15 = test system: HCT-15
HCC 2998 = test system: HCC 2998
NCI-H23 = test system: NCI-H23
786-0 = test system: 786-0
HOP-92 = test system: HOP-92
SK-OV-3 = test system: SK-OV-3
NCI-H522 = test system: NCI-H522
CCRF-CEM = test system: CCRF-CEM
DMS-273 = test system: DMS-273
SR = test system: SR
SK-MEL-28 = test system: SK-MEL-28
SK-MEL-2 = test system: SK-MEL-2
OVCAR-8 = test system: OVCAR-8
TK-10 = test system: TK-10
RXF 393 = test system: RXF 393
NCI-H226 = test system: NCI-H226
UACC-62 = test system: UACC-62
U-251 = test system: U-251
SF-295 = test system: SF-295
EKVX = test system: EKVX
SF-539 = test system: SF-539
M14 = test system: M14
A549 = test system: A549
IGROV-1 = test system: IGROV-1
HOP-62 = test system: HOP-62
HCT-116 = test system: HCT-116
SNB-78 = test system: SNB-78
UACC-257 = test system: UACC-257
Malme-3M = test system: Malme-3M
RPMI-8226 = test system: RPMI-8226
HL-60 = test system: HL-60
SF-268 = test system: SF-268
COLO 205 = test system: COLO 205
MOLT-4 = test system: MOLT-4
XF498 = test system: XF498
SNB-19 = test system: SNB-19
SNB-75 = test system: SNB-75
LXFL 529 = test system: LXFL 529
ACHN = test system: ACHN
CAKI-1 = test system: CAKI-1
SW-620 = test system: SW-620
NCI-H460 = test system: NCI-H460
UO-31 = test system: UO-31
SN12C = test system: SN12C
OVCAR-3 = test system: OVCAR-3
OVCAR-5 = test system: OVCAR-5
A498 = test system: A498
RXF 631 = test system: RXF 631
SK-MEL-5 = test system: SK-MEL-5
HOP-18 = test system: HOP-18
KM12 = test system: KM12
DLD-1 = test system: DLD-1
KM-20L2 = test system: KM-20L2
DMS-114 = test system: DMS-114
OVCAR-4 = test system: OVCAR-4

## COc1ccc(-c2[nH]c3ccccc3c2CCNS(=O)(=O)c2ccc(C)cc2)cc1
K562
  GI50: 5.06 µM (inactive)
HT-29
  GI50: 6.35 µM (inactive)
M19-MEL
  GI50: > 8.39 µM (inactive)
LOX IMVI
  GI50: > 10 µM (inactive)
HCT-15
  GI50: 7.6 µM
HCC 2998
  GI50: 9.68 µM (inactive)
NCI-H23
  GI50: > 10 µM (inactive)
786-0
  GI50: > 10 µM (inactive)
HOP-92
  GI50: > 10 µM (inactive)
SK-OV-3
  GI50: > 10 µM (inactive)
NCI-H522
  GI50: 7.93 µM (inactive)
CCRF-CEM
  GI50: 3.72 µM (inactive)
DMS-273
  GI50: 7.48 µM (inactive)
SR
  GI50: > 10 µM (inactive)
SK-MEL-28
  GI50: > 10 µM (inactive)
SK-MEL-2
  GI50: > 10 µM (inactive)
OVCAR-8
  GI50: > 7.91 µM (inactive)
TK-10
  GI50: > 7.8 µM (inactive)
RXF 393
  GI50: > 10 µM (inactive)
NCI-H226
  GI50: > 7.6 µM (inactive)
UACC-62
  GI50: > 8.39 µM (inactive)
U-251
  GI50: 8.09 µM (inactive)
SF-295
  GI50: > 8.41 µM (inactive)
EKVX
  GI50: > 7.93 µM (inactive)
SF-539
  GI50: > 10 µM (inactive)
M14
  GI50: > 10 µM (inactive)
A549
  GI50: 6.05 µM (inactive)
IGROV-1
  GI50: > 6.34 µM (inactive)
HOP-62
  GI50: > 10 µM (inactive)
HCT-116
  GI50: > 8.85 µM (inactive)
SNB-78
  GI50: > 10 µM (inactive)
UACC-257
  GI50: > 8.34 µM (inactive)
Malme-3M
  GI50: > 10 µM (inactive)
RPMI-8226
  GI50: 4.68 µM (inactive)
HL-60
  GI50: 6.7 µM (inactive)
SF-268
  GI50: > 10 µM (inactive)
COLO 205
  GI50: 1.83 µM (inactive)
MOLT-4
  GI50: 4.21 µM (inactive)
XF498
  GI50: > 8.83 µM (inactive)
SNB-19
  GI50: > 10 µM (inactive)
SNB-75
  GI50: > 10 µM (inactive)
LXFL 529
  GI50: > 10 µM (inactive)
ACHN
  GI50: > 8.59 µM (inactive)
CAKI-1
  GI50: > 10 µM (inactive)
SW-620
  GI50: > 10 µM (inactive)
NCI-H460
  GI50: 6.17 µM (inactive)
UO-31
  GI50: 4.92 µM (inactive)
SN12C
  GI50: > 10 µM (inactive)
OVCAR-3
  GI50: 7.23 µM (inactive)
OVCAR-5
  GI50: > 10 µM (inactive)
A498
  GI50: > 10 µM (inactive)
RXF 631
  GI50: > 8.49 µM (inactive)
SK-MEL-5
  GI50: > 5.9 µM (inactive)
HOP-18
  GI50: > 7.4 µM (inactive)
KM12
  GI50: 6.82 µM (inactive)
DLD-1
  GI50: 8.09 µM (inactive)
KM-20L2
  GI50: > 8.47 µM (inactive)
DMS-114
  GI50: > 9.55 µM (inactive)

## CN(c1nc(=[N+](C)C)ss1)C1CCCCC1
K562
  GI50: > 100 µM (inactive)
HT-29
  GI50: > 100 µM (inactive)
M19-MEL
  GI50: > 100 µM (inactive)
LOX IMVI
  GI50: > 100 µM (inactive)
HCT-15
  GI50: > 100 µM
HCC 2998
  GI50: > 100 µM (inactive)
NCI-H23
  GI50: 74.3 µM (inactive)
786-0
  GI50: > 100 µM (inactive)
HOP-92
  GI50: > 100 µM (inactive)
SK-OV-3
  GI50: > 100 µM (inactive)
NCI-H522
  GI50: > 100 µM (inactive)
CCRF-CEM
  GI50: 6.92 µM (inactive)
DMS-273
  GI50: > 100 µM (inactive)
SR
  GI50: > 100 µM (inactive)
SK-MEL-28
  GI50: > 100 µM (inactive)
SK-MEL-2
  GI50: > 100 µM (inactive)
OVCAR-8
  GI50: > 100 µM (inactive)
TK-10
  GI50: > 100 µM (inactive)
RXF 393
  GI50: > 100 µM (inactive)
NCI-H226
  GI50: > 100 µM (inactive)
UACC-62
  GI50: 19.4 µM (inactive)
U-251
  GI50: 33.4 µM (inactive)
SF-295
  GI50: 93.1 µM (inactive)
EKVX
  GI50: > 100 µM (inactive)
SF-539
  GI50: > 100 µM (inactive)
M14
  GI50: > 100 µM (inactive)
A549
  GI50: 38.3 µM (inactive)
IGROV-1
  GI50: > 100 µM (inactive)
HOP-62
  GI50: > 100 µM (inactive)
HCT-116
  GI50: > 100 µM (inactive)
SNB-78
  GI50: > 100 µM (inactive)
UACC-257
  GI50: > 100 µM (inactive)
Malme-3M
  GI50: > 100 µM (inactive)
RPMI-8226
  GI50: 62.1 µM (inactive)
HL-60
  GI50: > 100 µM (inactive)
SF-268
  GI50: 60.1 µM (inactive)
MOLT-4
  GI50: 95.1 µM (inactive)
XF498
  GI50: > 100 µM (inactive)
OVCAR-4
  GI50: > 100 µM (inactive)
SNB-19
  GI50: 70.5 µM (inactive)
SNB-75
  GI50: > 100 µM (inactive)
LXFL 529
  GI50: > 100 µM (inactive)
ACHN
  GI50: > 100 µM (inactive)
CAKI-1
  GI50: > 100 µM (inactive)
SW-620
  GI50: > 100 µM (inactive)
NCI-H460
  GI50: 13.3 µM (inactive)
UO-31
  GI50: > 100 µM (inactive)
SN12C
  GI50: > 100 µM (inactive)
OVCAR-5
  GI50: > 100 µM (inactive)
A498
  GI50: > 100 µM (inactive)
RXF 631
  GI50: > 100 µM (inactive)
SK-MEL-5
  GI50: 68.7 µM (inactive)
HOP-18
  GI50: > 100 µM (inactive)
KM12
  GI50: 58.5 µM (inactive)
DLD-1
  GI50: > 100 µM (inactive)
KM-20L2
  GI50: > 100 µM (inactive)
DMS-114
  GI50: 32.1 µM (inactive)

## CCCCCCCCCCCCCC(=O)OCC1OC(n2cc(F)c(=O)[nH]c2=O)C(NC(=O)OCc2ccccc2)C(OC(=O)CCCCCCCCCCCCC)C1O (centres undefined)
K562
  GI50: > 100 µM (inactive)
HT-29
  GI50: > 100 µM (inactive)
M19-MEL
  GI50: > 100 µM (inactive)
LOX IMVI
  GI50: > 100 µM (inactive)
HCT-15
  GI50: > 100 µM
HCC 2998
  GI50: > 100 µM (inactive)
NCI-H23
  GI50: > 100 µM (inactive)
786-0
  GI50: > 100 µM (inactive)
HOP-92
  GI50: > 100 µM (inactive)
SK-OV-3
  GI50: > 100 µM (inactive)
NCI-H522
  GI50: > 100 µM (inactive)
CCRF-CEM
  GI50: > 100 µM (inactive)
DMS-273
  GI50: > 100 µM (inactive)
SR
  GI50: > 100 µM (inactive)
SK-MEL-28
  GI50: > 100 µM (inactive)
SK-MEL-2
  GI50: > 100 µM (inactive)
OVCAR-8
  GI50: > 100 µM (inactive)
TK-10
  GI50: > 100 µM (inactive)
RXF 393
  GI50: > 100 µM (inactive)
NCI-H226
  GI50: > 100 µM (inactive)
UACC-62
  GI50: > 100 µM (inactive)
U-251
  GI50: > 100 µM (inactive)
SF-295
  GI50: 22.9 µM (inactive)
EKVX
  GI50: > 100 µM (inactive)
SF-539
  GI50: > 100 µM (inactive)
M14
  GI50: > 100 µM (inactive)
A549
  GI50: > 100 µM (inactive)
IGROV-1
  GI50: > 100 µM (inactive)
HOP-62
  GI50: > 100 µM (inactive)
HCT-116
  GI50: > 100 µM (inactive)
SNB-78
  GI50: > 100 µM (inactive)
UACC-257
  GI50: > 100 µM (inactive)
Malme-3M
  GI50: > 100 µM (inactive)
RPMI-8226
  GI50: > 100 µM (inactive)
HL-60
  GI50: > 100 µM (inactive)
SF-268
  GI50: > 100 µM (inactive)
COLO 205
  GI50: > 100 µM (inactive)
MOLT-4
  GI50: > 100 µM (inactive)
XF498
  GI50: > 100 µM (inactive)
OVCAR-4
  GI50: > 100 µM (inactive)
SNB-19
  GI50: > 100 µM (inactive)
SNB-75
  GI50: > 100 µM (inactive)
LXFL 529
  GI50: > 100 µM (inactive)
ACHN
  GI50: > 100 µM (inactive)
CAKI-1
  GI50: > 100 µM (inactive)
SW-620
  GI50: > 100 µM (inactive)
NCI-H460
  GI50: > 100 µM (inactive)
UO-31
  GI50: > 100 µM (inactive)
SN12C
  GI50: > 100 µM (inactive)
OVCAR-3
  GI50: > 100 µM (inactive)
OVCAR-5
  GI50: 25.6 µM (inactive)
A498
  GI50: > 100 µM (inactive)
RXF 631
  GI50: > 100 µM (inactive)
SK-MEL-5
  GI50: > 100 µM (inactive)
HOP-18
  GI50: > 100 µM (inactive)
KM12
  GI50: > 100 µM (inactive)
DLD-1
  GI50: > 100 µM (inactive)
KM-20L2
  GI50: > 100 µM (inactive)
DMS-114
  GI50: > 100 µM (inactive)
